Patent US20020040052A1, “Method for neurite outgrowth” (priority 2000, published 2002)

System: PC12 cells derived from adrenal medulla pheochromocytoma of rats
Test: Neurite extension of PC12 cells: percentage of cells with extended neurites after culturing for 3 days
Type: cell-based, rat
Experimental: Next, PC12 cells derived from adrenal medulla pheochromocytoma of rats were seeded in a serum-free DMEM/F12 medium containing 5 μg/ml of transferrin, 5 μg/ml of insulin and 20 nM of progesterone (GIBCO Corp., hereinafter, referred to as “DMEM-TIP medium”) at 2.0×10^4 cells/well (flat-bottomed 24 well collagen coated plate, manufactured by IWAKI). Then, the cells were cultured overnight at 37° C. under 5% CO2. […]
After culturing for 3 days, for each well of the plate, microscopic observation was conducted with respect to the cells at 200 times magnification. The percentage of the cells with extended neurites (cells that have neurites longer than their diameter) to the total of more than 200 cells was calculated.

Compound | Ratio of the cells with extended neurites (10 μM in DMEM-TIP medium) | Relative value of the ratio of the cells with extended neurites to control (Com. Ex. 1) (10 μM in DMEM-TIP medium) | Ratio of the cells with extended neurites (100 μM in DMEM-TIP medium) | Relative value of the ratio of the cells with extended neurites to control (Com. Ex. 1) (100 μM in DMEM-TIP medium) | Ratio of the cells with extended neurites (50 μM in DMEM-TIP medium) | Relative value of the ratio of the cells with extended neurites to control (Com. Ex. 1) (50 μM in DMEM-TIP medium)
COc1ccc(-c2cc(=O)c3c(OC)c(OC)c(OC)c(OC)c3o2)cc1 [tangeretin] | 4.8% | 1.4 | 12.2% | 3.5 | – | –
COc1ccc(-c2cc(=O)c3c(OC)c(OC)c(OC)c(OC)c3o2)cc1OC [nobiletin] | 8.7% | 2.5 | 42.8% | 12.2 | 16.6% | 4.7
